Measured values published in patent publication US20230257396A1, “MACROCYCLES AND THEIR USE” (BLOSSOMHILL THERAPEUTICS, INC., priority 2020, published 2023).

Legend:
Experiment in all cases: KINOMEscan kinase binding assay (Eurofins/DiscoveRx), % Ctrl
Details in all cases: 1 μM
kinases [1] = biological target: T1, kinases (Homo sapiens, UniProt P00533, T790M)
T1 construct: purchased Eurofins/DiscoveRx; host or cells: E. coli BL21-derived host (T7 phage display) for most kinases; HEK-293 for the rest
Outline: (§1)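 Competition binding, 1 h RT: phage-tagged or HEK-293-expressed DNA-tagged kinase + immobilized ligand + compound. Eluate kinase by qPCR. % Ctrl = (test − positive ctrl)/(negative ctrl − positive ctrl) × 100; lower means stronger binding.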

kinases [2] = biological target: T2, kinases (Homo sapiens, UniProt P07949, M918T)
T2 construct: purchased Eurofins/DiscoveRx; host or cells: E. coli BL21-derived host (T7 phage display) for most kinases; HEK-293 for the rest
Outline: as §1

kinases [3] = biological target: T3, kinases (Homo sapiens, UniProt P00533, L861Q)
T3 construct: purchased Eurofins/DiscoveRx; host or cells: E. coli BL21-derived host (T7 phage display) for most kinases; HEK-293 for the rest
Outline: as §1

kinases [4] = biological target: T4, kinases (Homo sapiens, UniProt P00533, DEL752-759)
T4 construct: purchased Eurofins/DiscoveRx; host or cells: E. coli BL21-derived host (T7 phage display) for most kinases; HEK-293 for the rest
Outline: as §1

kinases [5] = biological target: T5, kinases (Homo sapiens, UniProt P00519, H396P)
T5 construct: purchased Eurofins/DiscoveRx; host or cells: E. coli BL21-derived host (T7 phage display) for most kinases; HEK-293 for the rest
Outline: as §1

kinases [6] = biological target: T6, kinases (Homo sapiens, UniProt P42684)
T6 construct: purchased Eurofins/DiscoveRx; host or cells: E. coli BL21-derived host (T7 phage display) for most kinases; HEK-293 for the rest
Outline: as §1

kinases [7] = biological target: T7, kinases (Homo sapiens, UniProt P00519, M351T)
T7 construct: purchased Eurofins/DiscoveRx; host or cells: E. coli BL21-derived host (T7 phage display) for most kinases; HEK-293 for the rest
Outline: as §1

kinases [8] = biological target: T8, kinases (Homo sapiens, UniProt P09619)
T8 construct: purchased Eurofins/DiscoveRx; host or cells: E. coli BL21-derived host (T7 phage display) for most kinases; HEK-293 for the rest
Outline: as §1

kinases [9] = biological target: T9, kinases (Homo sapiens, UniProt P10721, V559D)
T9 construct: purchased Eurofins/DiscoveRx; host or cells: E. coli BL21-derived host (T7 phage display) for most kinases; HEK-293 for the rest
Outline: as §1

kinases [10] = biological target: T10, kinases (Homo sapiens, UniProt P07949, V804L)
T10 construct: purchased Eurofins/DiscoveRx; host or cells: E. coli BL21-derived host (T7 phage display) for most kinases; HEK-293 for the rest
Outline: as §1

kinases [11] = biological target: T11, kinases (Homo sapiens, UniProt P35916)
T11 construct: purchased Eurofins/DiscoveRx; host or cells: E. coli BL21-derived host (T7 phage display) for most kinases; HEK-293 for the rest
Outline: as §1

kinases [12] = biological target: T12, kinases (Homo sapiens, UniProt P36888)
T12 construct: purchased Eurofins/DiscoveRx; host or cells: E. coli BL21-derived host (T7 phage display) for most kinases; HEK-293 for the rest
T12 sequence (P36888 27-993): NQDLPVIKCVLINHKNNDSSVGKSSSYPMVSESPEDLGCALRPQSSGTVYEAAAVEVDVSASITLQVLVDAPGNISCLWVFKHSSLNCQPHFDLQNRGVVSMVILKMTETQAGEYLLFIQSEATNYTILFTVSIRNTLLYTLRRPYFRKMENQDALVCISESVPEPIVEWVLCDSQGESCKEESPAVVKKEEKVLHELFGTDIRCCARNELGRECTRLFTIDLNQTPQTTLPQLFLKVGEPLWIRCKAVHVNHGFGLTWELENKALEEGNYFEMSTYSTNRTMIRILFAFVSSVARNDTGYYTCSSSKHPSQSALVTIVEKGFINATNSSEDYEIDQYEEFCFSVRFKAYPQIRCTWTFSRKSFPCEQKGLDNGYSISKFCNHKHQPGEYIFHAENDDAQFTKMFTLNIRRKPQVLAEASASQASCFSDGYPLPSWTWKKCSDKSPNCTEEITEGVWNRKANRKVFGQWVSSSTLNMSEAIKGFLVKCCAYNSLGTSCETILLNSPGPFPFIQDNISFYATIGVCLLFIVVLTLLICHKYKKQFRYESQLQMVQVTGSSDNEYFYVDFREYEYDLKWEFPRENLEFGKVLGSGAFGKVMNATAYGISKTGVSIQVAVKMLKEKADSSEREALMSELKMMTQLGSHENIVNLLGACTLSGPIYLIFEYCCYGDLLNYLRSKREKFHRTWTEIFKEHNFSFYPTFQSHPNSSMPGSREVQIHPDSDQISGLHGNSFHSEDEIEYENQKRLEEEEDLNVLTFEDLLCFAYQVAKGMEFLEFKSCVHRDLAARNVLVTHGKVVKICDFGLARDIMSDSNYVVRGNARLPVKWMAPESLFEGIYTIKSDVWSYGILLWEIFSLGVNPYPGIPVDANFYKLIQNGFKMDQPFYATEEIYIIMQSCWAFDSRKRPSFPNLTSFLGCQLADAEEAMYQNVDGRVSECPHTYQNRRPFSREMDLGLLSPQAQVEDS
Outline: as §1

kinases [13] = biological target: T13, kinases (Homo sapiens, UniProt P10721, D816H)
T13 construct: purchased Eurofins/DiscoveRx; host or cells: E. coli BL21-derived host (T7 phage display) for most kinases; HEK-293 for the rest
Outline: as §1

kinases [14] = biological target: T14, kinases (Homo sapiens, UniProt P07949, V804M)
T14 construct: purchased Eurofins/DiscoveRx; host or cells: E. coli BL21-derived host (T7 phage display) for most kinases; HEK-293 for the rest
Outline: as §1

kinases [15] = biological target: T15, kinases (Homo sapiens, UniProt P10721)
T15 construct: purchased Eurofins/DiscoveRx; host or cells: E. coli BL21-derived host (T7 phage display) for most kinases; HEK-293 for the rest
Outline: as §1

T15 sequence (P10721 26-976): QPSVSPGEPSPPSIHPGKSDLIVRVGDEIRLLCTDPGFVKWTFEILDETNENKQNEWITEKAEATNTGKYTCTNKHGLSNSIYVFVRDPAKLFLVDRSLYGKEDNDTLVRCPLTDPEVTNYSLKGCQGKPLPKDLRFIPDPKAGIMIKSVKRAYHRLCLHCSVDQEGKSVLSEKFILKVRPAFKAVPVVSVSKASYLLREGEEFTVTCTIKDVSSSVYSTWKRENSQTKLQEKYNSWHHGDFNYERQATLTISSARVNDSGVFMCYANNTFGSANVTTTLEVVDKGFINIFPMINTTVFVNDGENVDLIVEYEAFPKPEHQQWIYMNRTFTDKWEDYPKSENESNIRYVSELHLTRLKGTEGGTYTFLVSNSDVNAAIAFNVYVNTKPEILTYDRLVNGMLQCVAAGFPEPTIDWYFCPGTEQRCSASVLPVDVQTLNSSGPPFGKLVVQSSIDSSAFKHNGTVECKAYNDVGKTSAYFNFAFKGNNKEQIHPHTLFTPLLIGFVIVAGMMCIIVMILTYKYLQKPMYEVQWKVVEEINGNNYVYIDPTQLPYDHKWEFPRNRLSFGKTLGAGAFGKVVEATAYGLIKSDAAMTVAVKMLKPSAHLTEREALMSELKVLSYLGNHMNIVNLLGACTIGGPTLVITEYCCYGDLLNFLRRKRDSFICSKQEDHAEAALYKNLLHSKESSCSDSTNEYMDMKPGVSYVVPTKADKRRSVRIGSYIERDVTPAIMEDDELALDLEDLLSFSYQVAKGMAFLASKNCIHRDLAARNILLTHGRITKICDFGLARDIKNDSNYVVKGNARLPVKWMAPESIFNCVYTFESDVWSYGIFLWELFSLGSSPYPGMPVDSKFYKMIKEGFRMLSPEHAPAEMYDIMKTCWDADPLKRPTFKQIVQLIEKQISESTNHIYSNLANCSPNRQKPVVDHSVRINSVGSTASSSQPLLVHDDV
T8 sequence (P09619 33-1106): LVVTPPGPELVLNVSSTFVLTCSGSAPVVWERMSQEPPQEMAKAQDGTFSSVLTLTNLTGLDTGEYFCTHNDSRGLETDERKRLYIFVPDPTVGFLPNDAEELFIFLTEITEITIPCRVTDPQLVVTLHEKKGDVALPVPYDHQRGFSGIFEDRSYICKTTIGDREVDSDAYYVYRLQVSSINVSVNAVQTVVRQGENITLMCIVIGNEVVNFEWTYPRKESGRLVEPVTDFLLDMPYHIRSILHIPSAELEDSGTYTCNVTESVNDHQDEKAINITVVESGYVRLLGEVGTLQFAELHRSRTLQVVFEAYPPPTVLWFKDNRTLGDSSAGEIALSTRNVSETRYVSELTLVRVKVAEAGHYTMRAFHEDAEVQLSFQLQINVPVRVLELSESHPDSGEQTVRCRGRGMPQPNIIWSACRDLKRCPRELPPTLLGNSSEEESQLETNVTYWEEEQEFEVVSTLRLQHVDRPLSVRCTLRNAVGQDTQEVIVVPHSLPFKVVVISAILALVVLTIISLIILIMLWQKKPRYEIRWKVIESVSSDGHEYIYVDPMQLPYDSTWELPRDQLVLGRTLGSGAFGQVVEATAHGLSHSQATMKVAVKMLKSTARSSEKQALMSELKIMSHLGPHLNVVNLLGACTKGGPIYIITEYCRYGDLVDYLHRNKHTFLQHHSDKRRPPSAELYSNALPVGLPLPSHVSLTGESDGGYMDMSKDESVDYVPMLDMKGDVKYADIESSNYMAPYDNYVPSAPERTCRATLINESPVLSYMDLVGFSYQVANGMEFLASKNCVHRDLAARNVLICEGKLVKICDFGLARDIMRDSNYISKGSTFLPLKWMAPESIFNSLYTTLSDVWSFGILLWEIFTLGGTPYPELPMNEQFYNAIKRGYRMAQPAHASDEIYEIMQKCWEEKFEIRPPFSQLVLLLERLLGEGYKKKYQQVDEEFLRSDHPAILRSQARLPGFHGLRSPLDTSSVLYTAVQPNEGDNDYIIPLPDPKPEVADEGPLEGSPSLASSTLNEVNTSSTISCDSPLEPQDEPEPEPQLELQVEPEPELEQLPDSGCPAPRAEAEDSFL
T10 sequence (P07949 29-1114 V804L): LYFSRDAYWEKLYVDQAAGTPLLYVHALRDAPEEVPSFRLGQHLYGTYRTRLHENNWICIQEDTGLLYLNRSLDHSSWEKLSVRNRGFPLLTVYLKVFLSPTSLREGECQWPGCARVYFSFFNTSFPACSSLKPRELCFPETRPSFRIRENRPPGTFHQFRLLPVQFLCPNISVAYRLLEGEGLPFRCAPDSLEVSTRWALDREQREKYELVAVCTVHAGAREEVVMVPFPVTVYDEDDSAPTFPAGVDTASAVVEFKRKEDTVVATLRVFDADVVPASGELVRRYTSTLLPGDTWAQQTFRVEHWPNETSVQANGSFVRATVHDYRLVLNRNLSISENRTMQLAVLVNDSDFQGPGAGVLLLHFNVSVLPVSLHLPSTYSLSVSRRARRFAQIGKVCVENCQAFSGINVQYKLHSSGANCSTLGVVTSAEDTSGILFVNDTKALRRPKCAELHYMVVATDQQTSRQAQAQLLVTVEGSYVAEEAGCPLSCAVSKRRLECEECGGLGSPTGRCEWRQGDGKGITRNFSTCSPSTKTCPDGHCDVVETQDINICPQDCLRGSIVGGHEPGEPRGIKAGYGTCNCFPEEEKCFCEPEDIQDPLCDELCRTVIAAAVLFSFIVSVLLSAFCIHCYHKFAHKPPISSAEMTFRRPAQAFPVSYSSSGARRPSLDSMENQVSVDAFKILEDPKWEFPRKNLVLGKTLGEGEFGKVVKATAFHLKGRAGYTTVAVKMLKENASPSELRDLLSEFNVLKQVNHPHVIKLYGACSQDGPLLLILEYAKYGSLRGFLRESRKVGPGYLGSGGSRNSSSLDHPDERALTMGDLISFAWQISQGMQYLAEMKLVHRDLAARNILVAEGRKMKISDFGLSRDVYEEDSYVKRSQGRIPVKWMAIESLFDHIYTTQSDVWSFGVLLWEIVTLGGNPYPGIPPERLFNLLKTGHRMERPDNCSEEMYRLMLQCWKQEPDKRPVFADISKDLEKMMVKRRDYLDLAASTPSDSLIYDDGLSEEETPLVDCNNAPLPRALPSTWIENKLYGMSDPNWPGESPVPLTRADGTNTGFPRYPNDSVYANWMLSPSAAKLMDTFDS
T13 sequence (P10721 26-976 D816H): as the sequence (P10721 26-976) above, with D791H counted along it
T14 sequence (P07949 29-1114 V804M): as the sequence (P07949 29-1114 V804L) above, with L776M counted along it
T11 sequence (P35916 25-1363): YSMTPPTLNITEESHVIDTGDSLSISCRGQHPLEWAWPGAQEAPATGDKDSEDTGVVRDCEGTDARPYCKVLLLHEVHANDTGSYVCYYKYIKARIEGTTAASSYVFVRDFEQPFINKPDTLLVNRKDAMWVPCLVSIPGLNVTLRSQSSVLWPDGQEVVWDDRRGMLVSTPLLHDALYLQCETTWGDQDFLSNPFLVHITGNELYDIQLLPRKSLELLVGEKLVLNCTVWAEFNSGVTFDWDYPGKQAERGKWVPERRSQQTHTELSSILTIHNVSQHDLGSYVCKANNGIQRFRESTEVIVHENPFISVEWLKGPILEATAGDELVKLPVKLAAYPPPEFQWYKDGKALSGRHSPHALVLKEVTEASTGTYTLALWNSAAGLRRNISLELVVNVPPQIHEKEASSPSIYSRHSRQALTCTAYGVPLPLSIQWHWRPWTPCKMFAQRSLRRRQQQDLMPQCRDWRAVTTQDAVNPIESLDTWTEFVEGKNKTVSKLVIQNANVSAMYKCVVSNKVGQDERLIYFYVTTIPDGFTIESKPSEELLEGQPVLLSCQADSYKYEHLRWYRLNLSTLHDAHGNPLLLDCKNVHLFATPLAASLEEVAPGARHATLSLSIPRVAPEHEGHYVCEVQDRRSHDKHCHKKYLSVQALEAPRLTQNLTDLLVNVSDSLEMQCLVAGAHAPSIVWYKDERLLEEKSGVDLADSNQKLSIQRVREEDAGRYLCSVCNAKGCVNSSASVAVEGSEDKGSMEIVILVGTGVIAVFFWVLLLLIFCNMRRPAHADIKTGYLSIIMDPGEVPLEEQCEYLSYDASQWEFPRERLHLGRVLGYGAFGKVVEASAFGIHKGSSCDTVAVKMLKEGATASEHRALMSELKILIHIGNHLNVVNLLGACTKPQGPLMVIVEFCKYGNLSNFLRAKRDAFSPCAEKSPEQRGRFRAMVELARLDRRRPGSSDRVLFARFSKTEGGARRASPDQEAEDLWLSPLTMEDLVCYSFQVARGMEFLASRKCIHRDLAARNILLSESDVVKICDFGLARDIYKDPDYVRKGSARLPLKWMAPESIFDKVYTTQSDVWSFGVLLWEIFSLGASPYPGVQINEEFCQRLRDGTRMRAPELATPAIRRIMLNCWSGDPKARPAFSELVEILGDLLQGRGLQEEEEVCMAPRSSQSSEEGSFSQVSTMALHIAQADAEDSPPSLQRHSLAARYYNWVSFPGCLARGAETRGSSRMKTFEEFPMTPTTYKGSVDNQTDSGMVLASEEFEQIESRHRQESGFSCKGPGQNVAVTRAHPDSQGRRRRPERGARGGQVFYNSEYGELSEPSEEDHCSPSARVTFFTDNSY
T9 sequence (P10721 26-976 V559D): as the sequence (P10721 26-976) above, with V534D counted along it
T2 sequence (P07949 29-1114 M918T): as the sequence (P07949 29-1114 V804L) above, with L776V, M890T counted along it

| % Ctrl, EGFR(T790M) (kinases [1]; EGFR(T790M)) | % Ctrl, RET(M918T) (kinases [2]; RET(M918T)) | % Ctrl, EGFR(L861Q) (kinases [3]; EGFR(L861Q)) | % Ctrl, EGFR(S752-I759del) (kinases [4]; EGFR(S752-I759del)) | % Ctrl, ABL1(H396P)-nonphosphorylated (kinases [5]; ABL1(H396P)-nonphosphorylated) | % Ctrl, ABL1(H396P)-phosphorylated (kinases [5]; ABL1(H396P)-phosphorylated) | % Ctrl, ABL2 (kinases [6]; ABL2) | % Ctrl, ABL1(M351T)-phosphorylated (kinases [7]; ABL1(M351T)-phosphorylated) | % Ctrl, PDGFRB (kinases [8]; PDGFRB) | % Ctrl, KIT(V559D) (kinases [9]; KIT(V559D)) | % Ctrl, RET(V804L) (kinases [10]; RET(V804L)) | % Ctrl, FLT4 (kinases [11]; FLT4) | % Ctrl, FLT3 (kinases [12]; FLT3) | % Ctrl, FLT3-autoinhibited (kinases [12]; FLT3-autoinhibited) | % Ctrl, KIT(D816H) (kinases [13]; KIT(D816H)) | % Ctrl, RET(V804M) (kinases [14]; RET(V804M)) | % Ctrl, KIT (kinases [15]; KIT) | % Ctrl, KIT-autoinhibited (kinases [15]; KIT-autoinhibited) | Compound | other results |
| --- | --- | --- | --- | --- | --- | --- | --- | --- | --- | --- | --- | --- | --- | --- | --- | --- | --- | --- | --- |
| 100 % Ctrl | 91 % Ctrl | 80 % Ctrl | 74 % Ctrl | 100 % Ctrl | 98 % Ctrl | 100 % Ctrl | 100 % Ctrl | 98 % Ctrl | 100 % Ctrl | 95 % Ctrl | 95 % Ctrl | 93 % Ctrl | 100 % Ctrl | 100 % Ctrl | 89 % Ctrl | 100 % Ctrl | 100 % Ctrl | Cc1cc2c([nH]1)/C=C1\C(=O)Nc3cnc(nc31)N(C)CCCOCCN(C)C2=O [Ex.71, [17a(18)Z]-2,5,12-trimethyl-6,7,9,10,11,12-hexahydro-1H-13,15-(azenometheno)dipyrrolo[3,2-f:3′,4′-i][1,4,11,13]oxatriazacyclohexadecine-4,17(5H,16H)-dione] |  |
| 8.5 % Ctrl | 0 % Ctrl | 81 % Ctrl | 68 % Ctrl | 0.5 % Ctrl | 0 % Ctrl | 2.4 % Ctrl | 0.05 % Ctrl | 0.35 % Ctrl | 36 % Ctrl | 0 % Ctrl | 0.15 % Ctrl | 0.15 % Ctrl | 0.35 % Ctrl | 0.4 % Ctrl | 0.05 % Ctrl | 45 % Ctrl | 93 % Ctrl | Cc1cc2c([nH]1)/C=C1\C(=O)Nc3ccc(cc31)-c1cnn(C)c1COCCN(C)C2=O [Ex. 124, [3a(4)Z]-6,9,14-trimethyl-10,11,13,14-tetrahydro-2H-1,17-(ethanediylidene)pyrazolo[4,3-m]dipyrrolo[3,2-f:3′,4′-i][1,4]oxazacyclopentadecine-3,8(5H,9H)-dione] |  |
|  |  |  |  |  |  |  |  |  |  |  |  |  |  |  |  |  |  | CN1CCOc2cc3c(cc2Cl)NC(=O)/C3=C\c2[nH]ccc2C(=O)N(C)CC1 [Ex. 164, [16a(17)Z]-19-chloro-2,5,8-trimethyl-5,6,7,8,9,10-hexahydro-12,14-(ethanediylidene)dipyrrolo[3,2-i:3′,4′-l][1,4,7]oxadiazacyclopentadecine-4,16(1H,15H)-dione] | % Ctrl, EGFR(T790M) (kinases [1]; target EGFR(T790M)): 97 % Ctrl; % Ctrl, RET(M918T) (kinases [2]; target RET(M918T)): 0 % Ctrl; % Ctrl, EGFR(L861Q) (kinases [3]; target EGFR(L861Q)): 63 % Ctrl; % Ctrl, EGFR(S752-I759del) (kinases [4]; target EGFR(S752-I759del)): 55 % Ctrl; % Ctrl, ABL1(H396P)-nonphosphorylated (kinases [5]; target ABL1(H396P)-nonphosphorylated): 0 % Ctrl; % Ctrl, ABL1(H396P)-phosphorylated (kinases [5]; target ABL1(H396P)-phosphorylated): 0 % Ctrl; % Ctrl, ABL2 (kinases [6]; target ABL2): 2.3 % Ctrl; % Ctrl, ABL1(M351T)-phosphorylated (kinases [7]; target ABL1(M351T)-phosphorylated): 0.3 % Ctrl; % Ctrl, PDGFRB (kinases [8]; target PDGFRB): 0.9 % Ctrl; % Ctrl, KIT(V559D) (kinases [9]; target KIT(V559D)): 6.9 % Ctrl; % Ctrl, RET(V804L) (kinases [10]; target RET(V804L)): 1.2 % Ctrl; % Ctrl, FLT4 (kinases [11]; target FLT4): 0.2 % Ctrl; % Ctrl, FLT3 (kinases [12]; target FLT3): 2.5 % Ctrl; % Ctrl, FLT3-autoinhibited (kinases [12]; target FLT3-autoinhibited): 63 % Ctrl; % Ctrl, KIT(D816H) (kinases [13]; target KIT(D816H)): 22 % Ctrl; % Ctrl, RET(V804M) (kinases [14]; target RET(V804M)): 2.1 % Ctrl; % Ctrl, KIT (kinases [15]; target KIT): 18 % Ctrl; % Ctrl, KIT-autoinhibited (kinases [15]; target KIT-autoinhibited): 81 % Ctrl |
